Assays:
B-Raf = B-Raf (Homo sapiens, UniProt P15056); test: Kinase activity assay, B-Raf; format: biochemical; details: read-out: activity toward kinase B-Raf, IC50
A-Raf = target: T1, A-Raf (Homo sapiens, UniProt P10398); test: Kinase activity assay, A-Raf
T1 sequence (P10398 1-606): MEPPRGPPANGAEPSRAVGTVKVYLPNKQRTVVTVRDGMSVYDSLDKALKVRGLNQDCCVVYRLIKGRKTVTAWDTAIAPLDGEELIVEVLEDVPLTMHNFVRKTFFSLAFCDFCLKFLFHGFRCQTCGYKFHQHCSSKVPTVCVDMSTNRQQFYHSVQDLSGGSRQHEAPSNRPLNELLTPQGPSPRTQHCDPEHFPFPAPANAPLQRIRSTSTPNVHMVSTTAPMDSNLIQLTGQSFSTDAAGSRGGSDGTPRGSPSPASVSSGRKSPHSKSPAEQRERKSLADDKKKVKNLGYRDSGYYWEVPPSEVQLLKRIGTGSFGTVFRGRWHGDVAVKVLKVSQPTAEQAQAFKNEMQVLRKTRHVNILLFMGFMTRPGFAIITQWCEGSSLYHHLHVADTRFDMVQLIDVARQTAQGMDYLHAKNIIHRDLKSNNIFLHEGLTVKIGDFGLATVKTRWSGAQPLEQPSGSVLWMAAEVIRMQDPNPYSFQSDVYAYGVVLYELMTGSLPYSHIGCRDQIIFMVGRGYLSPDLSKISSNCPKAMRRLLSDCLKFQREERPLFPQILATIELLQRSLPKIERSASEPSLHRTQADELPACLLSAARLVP

B-Raf V600E = B-Raf V600E (Homo sapiens, UniProt P15056, V600E); test: Kinase activity assay, B-Raf V600E; format: biochemical; details: read-out: activity toward kinase B-Raf V600E, IC50
Sequence of B-Raf V600E (P15056 whole entry V600E): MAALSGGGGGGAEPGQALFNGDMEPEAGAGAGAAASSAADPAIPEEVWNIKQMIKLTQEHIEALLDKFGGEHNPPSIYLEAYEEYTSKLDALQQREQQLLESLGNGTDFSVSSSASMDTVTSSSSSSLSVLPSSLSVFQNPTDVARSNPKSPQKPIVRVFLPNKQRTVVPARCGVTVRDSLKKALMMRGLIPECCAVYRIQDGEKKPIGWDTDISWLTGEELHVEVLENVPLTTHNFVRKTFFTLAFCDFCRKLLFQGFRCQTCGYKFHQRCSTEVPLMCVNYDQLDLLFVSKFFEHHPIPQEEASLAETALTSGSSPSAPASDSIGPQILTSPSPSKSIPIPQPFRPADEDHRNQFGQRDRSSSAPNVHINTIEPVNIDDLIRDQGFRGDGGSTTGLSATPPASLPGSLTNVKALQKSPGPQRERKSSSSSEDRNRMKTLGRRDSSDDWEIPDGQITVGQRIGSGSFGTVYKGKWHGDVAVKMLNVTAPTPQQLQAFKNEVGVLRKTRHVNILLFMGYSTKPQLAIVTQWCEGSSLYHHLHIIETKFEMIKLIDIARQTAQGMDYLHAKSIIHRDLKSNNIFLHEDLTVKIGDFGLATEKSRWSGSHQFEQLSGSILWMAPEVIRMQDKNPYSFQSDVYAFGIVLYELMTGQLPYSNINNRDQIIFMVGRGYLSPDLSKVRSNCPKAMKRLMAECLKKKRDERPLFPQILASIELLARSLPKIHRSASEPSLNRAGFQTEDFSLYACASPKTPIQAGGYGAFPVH

C-Raf = C-Raf (Homo sapiens, UniProt P04049); test: Kinase activity assay, C-Raf
Sequence of C-Raf (P04049 whole entry): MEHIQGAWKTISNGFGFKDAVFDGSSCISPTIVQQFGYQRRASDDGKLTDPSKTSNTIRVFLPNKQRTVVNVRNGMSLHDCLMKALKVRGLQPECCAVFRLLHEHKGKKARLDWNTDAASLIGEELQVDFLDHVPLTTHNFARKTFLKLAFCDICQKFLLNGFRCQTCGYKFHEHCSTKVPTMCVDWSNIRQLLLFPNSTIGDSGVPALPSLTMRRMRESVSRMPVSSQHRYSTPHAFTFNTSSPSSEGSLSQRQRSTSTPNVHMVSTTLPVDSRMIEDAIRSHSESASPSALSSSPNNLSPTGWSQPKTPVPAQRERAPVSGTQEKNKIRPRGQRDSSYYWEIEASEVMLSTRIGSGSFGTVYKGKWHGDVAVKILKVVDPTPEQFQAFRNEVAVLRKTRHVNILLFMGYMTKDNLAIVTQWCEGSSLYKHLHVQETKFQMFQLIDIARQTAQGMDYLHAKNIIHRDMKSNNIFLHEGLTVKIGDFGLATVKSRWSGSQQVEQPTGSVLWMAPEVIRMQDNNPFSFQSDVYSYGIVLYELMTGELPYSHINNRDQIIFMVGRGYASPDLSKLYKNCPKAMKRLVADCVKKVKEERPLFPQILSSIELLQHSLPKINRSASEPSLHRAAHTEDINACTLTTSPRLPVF

Kit = Kit (Homo sapiens, UniProt P10721); test: Kinase activity assay, Kit
Src = Src (Homo sapiens, UniProt P12931); test: Kinase activity assay, Src
Sequence of Src (P12931 whole entry): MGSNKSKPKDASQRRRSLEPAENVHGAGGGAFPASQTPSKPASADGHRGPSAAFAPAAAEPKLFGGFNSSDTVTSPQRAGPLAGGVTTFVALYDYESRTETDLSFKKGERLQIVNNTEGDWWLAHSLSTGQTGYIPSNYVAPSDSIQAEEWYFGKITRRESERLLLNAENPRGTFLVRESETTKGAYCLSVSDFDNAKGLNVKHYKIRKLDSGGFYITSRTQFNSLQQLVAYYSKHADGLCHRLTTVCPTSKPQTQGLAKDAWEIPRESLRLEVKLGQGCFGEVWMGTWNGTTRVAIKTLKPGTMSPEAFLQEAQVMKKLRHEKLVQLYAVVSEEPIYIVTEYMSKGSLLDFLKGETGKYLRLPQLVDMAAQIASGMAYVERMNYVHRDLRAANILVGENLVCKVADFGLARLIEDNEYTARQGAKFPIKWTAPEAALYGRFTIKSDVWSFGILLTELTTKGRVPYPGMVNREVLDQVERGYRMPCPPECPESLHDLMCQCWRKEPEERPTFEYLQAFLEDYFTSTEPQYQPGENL

Kdr = Kdr (Homo sapiens, UniProt P35968); test: Kinase activity assay, Kdr
Sequence of Kdr (P35968 20-1356): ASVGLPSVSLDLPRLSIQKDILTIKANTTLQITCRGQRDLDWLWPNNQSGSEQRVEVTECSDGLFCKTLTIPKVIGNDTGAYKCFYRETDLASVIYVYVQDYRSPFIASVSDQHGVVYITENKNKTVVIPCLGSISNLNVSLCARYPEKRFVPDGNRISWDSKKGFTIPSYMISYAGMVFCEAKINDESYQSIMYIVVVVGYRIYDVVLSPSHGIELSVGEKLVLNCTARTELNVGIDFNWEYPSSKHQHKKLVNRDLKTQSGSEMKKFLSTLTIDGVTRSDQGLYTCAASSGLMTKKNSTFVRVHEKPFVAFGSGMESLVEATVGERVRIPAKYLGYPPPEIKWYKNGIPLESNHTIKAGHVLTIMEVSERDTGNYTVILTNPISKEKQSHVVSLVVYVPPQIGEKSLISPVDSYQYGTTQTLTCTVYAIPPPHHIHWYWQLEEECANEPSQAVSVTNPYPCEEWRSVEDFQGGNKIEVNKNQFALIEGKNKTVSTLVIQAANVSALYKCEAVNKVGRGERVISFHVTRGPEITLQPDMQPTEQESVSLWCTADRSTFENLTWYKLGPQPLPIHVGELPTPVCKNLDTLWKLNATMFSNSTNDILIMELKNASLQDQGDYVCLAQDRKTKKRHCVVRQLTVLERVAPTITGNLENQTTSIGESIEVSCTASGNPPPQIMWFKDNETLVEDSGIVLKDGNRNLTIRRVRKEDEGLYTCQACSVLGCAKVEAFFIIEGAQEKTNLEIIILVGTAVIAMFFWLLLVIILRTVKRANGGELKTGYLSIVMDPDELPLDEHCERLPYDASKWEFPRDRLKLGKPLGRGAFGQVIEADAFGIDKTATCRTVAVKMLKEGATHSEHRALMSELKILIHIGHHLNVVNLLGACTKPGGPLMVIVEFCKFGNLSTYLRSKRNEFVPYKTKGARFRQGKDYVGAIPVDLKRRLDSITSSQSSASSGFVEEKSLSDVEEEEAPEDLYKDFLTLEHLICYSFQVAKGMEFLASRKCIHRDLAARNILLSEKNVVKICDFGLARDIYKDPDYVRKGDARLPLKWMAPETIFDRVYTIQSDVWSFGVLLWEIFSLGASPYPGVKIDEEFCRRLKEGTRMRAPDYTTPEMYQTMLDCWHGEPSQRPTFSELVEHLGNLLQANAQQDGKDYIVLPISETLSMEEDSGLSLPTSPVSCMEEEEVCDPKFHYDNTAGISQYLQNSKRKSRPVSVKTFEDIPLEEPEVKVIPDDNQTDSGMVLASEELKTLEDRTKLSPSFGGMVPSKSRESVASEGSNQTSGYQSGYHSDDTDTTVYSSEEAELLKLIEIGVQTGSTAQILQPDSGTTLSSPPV

MAP4K4 = MAP4K4 (Homo sapiens, UniProt O95819); test: Kinase activity assay, MAP4K4
Fms = Fms (Homo sapiens, UniProt P07333); test: Kinase activity assay, Fms
Sequence of Fms (P07333 20-972): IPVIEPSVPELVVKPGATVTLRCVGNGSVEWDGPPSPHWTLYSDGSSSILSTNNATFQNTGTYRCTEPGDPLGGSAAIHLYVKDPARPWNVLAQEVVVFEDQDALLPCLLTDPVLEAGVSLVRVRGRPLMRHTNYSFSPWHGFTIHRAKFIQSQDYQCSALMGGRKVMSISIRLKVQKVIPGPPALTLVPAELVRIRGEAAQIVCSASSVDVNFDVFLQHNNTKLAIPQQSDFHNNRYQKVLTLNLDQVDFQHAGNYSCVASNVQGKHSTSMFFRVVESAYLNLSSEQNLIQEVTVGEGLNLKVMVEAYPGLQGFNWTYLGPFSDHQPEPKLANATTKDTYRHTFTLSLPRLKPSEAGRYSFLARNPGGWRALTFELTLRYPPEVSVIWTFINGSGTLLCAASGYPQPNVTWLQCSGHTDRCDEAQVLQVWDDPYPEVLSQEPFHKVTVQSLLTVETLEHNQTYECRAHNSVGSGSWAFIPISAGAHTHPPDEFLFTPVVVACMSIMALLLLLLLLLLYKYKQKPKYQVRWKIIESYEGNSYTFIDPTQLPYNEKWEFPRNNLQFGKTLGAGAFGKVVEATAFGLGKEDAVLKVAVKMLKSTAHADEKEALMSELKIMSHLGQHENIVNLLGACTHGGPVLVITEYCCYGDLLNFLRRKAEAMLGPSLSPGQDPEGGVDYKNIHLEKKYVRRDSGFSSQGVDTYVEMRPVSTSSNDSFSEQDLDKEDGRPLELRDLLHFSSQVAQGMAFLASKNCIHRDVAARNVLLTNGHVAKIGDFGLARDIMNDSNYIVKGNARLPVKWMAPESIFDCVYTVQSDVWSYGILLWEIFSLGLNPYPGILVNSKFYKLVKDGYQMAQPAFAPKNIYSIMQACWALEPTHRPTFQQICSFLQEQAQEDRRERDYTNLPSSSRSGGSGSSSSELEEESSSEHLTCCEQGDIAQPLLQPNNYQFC

Measured: IC50

Sequence of B-Raf (P15056 whole entry): as the sequence (P15056 whole entry V600E) above, with E600V counted along it

N#Cc1ccnc2[nH]cc(C(=O)c3c(F)ccc(NS(=O)(=O)c4cccnc4)c3F)c12 [P-2077, Pyridine-3-sulfonic acid [3-(4-cyano-1H-pyrrolo[2,3-b]pyridine-3-carbonyl)-2,4-difluoro-phenyl]-amide]
≤ 10 µM: B-Raf | A-Raf | B-Raf V600E | C-Raf

O=C(c1cc(NS(=O)(=O)c2ccc(C(F)(F)F)cc2)ccc1F)c1c[nH]c2ncccc12 [P-2119, N-[4-Fluoro-3-(1H-pyrrolo[2,3-b]pyridine-3-carbonyl)-phenyl]-4-trifluoromethyl-benzenesulfonamide]
≤ 10 µM: B-Raf | A-Raf | C-Raf

O=C(O)CCc1cccc(-c2cnc3[nH]cc(C(=O)c4cccc(NS(=O)(=O)c5cccnc5)c4)c3c2)c1 [P-2148, 3-(3-{3-[3-(Pyridine-3-sulfonylamino)-benzoyl]-1H-pyrrolo[2,3-b]pyridin-5-yl}-phenyl)-propionic acid]
not listed: A-Raf | B-Raf V600E | C-Raf
≤ 10 µM: all other assays above

CCCS(=O)(=O)Nc1ccc(F)c(C(=O)c2c[nH]c3nccc(Cl)c23)c1F [P-2208, Propane-1-sulfonic acid [3-(4-chloro-1H-pyrrolo[2,3-b]pyridine-3-carbonyl)-2,4-difluoro-phenyl]-amide]
≤ 10 µM: B-Raf | A-Raf | B-Raf V600E | Kdr | C-Raf

CCCS(=O)(=O)Nc1ccc(F)c(C(=O)c2c[nH]c3ncc(-c4ccc(CCCOC)nc4)cc23)c1F [P-2226, Propane-1-sulfonic acid (2,4-difluoro-3-{5-[6-(3-methoxy-propyl)-pyridin-3-yl]-1H-pyrrolo[2,3-b]pyridine-3-carbonyl}-phenyl)-amide]
not listed: A-Raf
≤ 10 µM: all other assays above

CCCS(=O)(=O)Nc1ccc(F)c(C(=O)c2c[nH]c3ncc(-c4cccc(S(C)(=O)=O)c4)cc23)c1F [P-2228, Propane-1-sulfonic acid {2,4-difluoro-3-[5-(3-methanesulfonyl-phenyl)-1H-pyrrolo[2,3-b]pyridine-3-carbonyl]-phenyl}-amide]
not listed: A-Raf
≤ 10 µM: all other assays above

CCCS(=O)(=O)Nc1ccc(F)c(C(=O)c2c[nH]c3ncc(CCC(=O)NOC)cc23)c1F [P-2243, 3-{3-[2,6-Difluoro-3-(propane-1-sulfonylamino)-benzoyl]-1H-pyrrolo[2,3-b]pyridin-5-yl}-N-methoxy-propionamide]
≤ 10 µM: B-Raf | A-Raf | B-Raf V600E | Kdr | C-Raf

CCCS(=O)(=O)Nc1ccc(F)c(C(=O)c2c[nH]c3ncc(CCC(=O)N(CC)CC)cc23)c1F [P-2255, 3-{3-[2,6-Difluoro-3-(propane-1-sulfonylamino)-benzoyl]-1H-pyrrolo[2,3-b]pyridin-5-yl}-N,N-diethyl-propionamide]
≤ 10 µM: B-Raf | A-Raf | B-Raf V600E | Kdr | C-Raf

CCCS(=O)(=O)Nc1ccc(F)c(C(=O)c2c[nH]c3ncc(CN(CC)CC)cc23)c1F [P-2258, Propane-1-sulfonic acid [3-(5-diethylaminomethyl-1H-pyrrolo[2,3-b]pyridine-3-carbonyl)-2,4-difluoro-phenyl]-amide]
≤ 10 µM: B-Raf | A-Raf | B-Raf V600E | C-Raf

CCCS(=O)(=O)Nc1ccc(F)c(C(=O)c2c[nH]c3ncc(CN4CCCC4)cc23)c1F [P-2259, Propane-1-sulfonic acid [2,4-difluoro-3-(5-pyrrolidin-1-ylmethyl-1H-pyrrolo[2,3-b]pyridine-3-carbonyl)-phenyl]-amide]
≤ 10 µM: B-Raf | A-Raf | B-Raf V600E | C-Raf

CCS(=O)(=O)Nc1ccc(F)c(C(=O)c2c[nH]c3nccc(C#N)c23)c1F [P-2283, Ethanesulfonic acid [3-(4-cyano-1H-pyrrolo[2,3-b]pyridine-3-carbonyl)-2,4-difluoro-phenyl]-amide]
≤ 10 µM: B-Raf | A-Raf | B-Raf V600E | C-Raf

CC(C)S(=O)(=O)Nc1ccc(F)c(C(=O)c2c[nH]c3nccc(C#N)c23)c1F [P-2285, Propane-2-sulfonic acid [3-(4-cyano-1H-pyrrolo[2,3-b]pyridine-3-carbonyl)-2,4-difluoro-phenyl]-amide]
≤ 10 µM: B-Raf | A-Raf | B-Raf V600E | C-Raf

CC(C)CS(=O)(=O)Nc1ccc(F)c(C(=O)c2c[nH]c3nccc(C#N)c23)c1F [P-2320, 2-Methyl-propane-1-sulfonic acid [3-(4-cyano-1H-pyrrolo[2,3-b]pyridine-3-carbonyl)-2,4-difluoro-phenyl]-amide]
≤ 10 µM: B-Raf | A-Raf | B-Raf V600E | Kdr | C-Raf

O=C(c1c(F)ccc(NS(=O)(=O)CCC(F)(F)F)c1F)c1c[nH]c2ncc(Cl)cc12 [P-2324, 3,3,3-Trifluoro-propane-1-sulfonic acid [3-(5-chloro-1H-pyrrolo[2,3-b]pyridine-3-carbonyl)-2,4-difluoro-phenyl]-amide]
not listed: A-Raf
≤ 10 µM: all other assays above

N#Cc1cnc2[nH]cc(C(=O)c3c(F)ccc(NS(=O)(=O)CCC(F)(F)F)c3F)c2c1 [P-2331, 3,3,3-Trifluoro-propane-1-sulfonic acid [3-(5-cyano-1H-pyrrolo[2,3-b]pyridine-3-carbonyl)-2,4-difluoro-phenyl]-amide]
not listed: A-Raf
≤ 10 µM: all other assays above

CCN(CC)S(=O)(=O)Nc1ccc(F)c(C(=O)c2c[nH]c3ncc(C#N)cc23)c1F [P-2385, N,N-diethylamino-sulfonic acid [3-(5-cyano-1H-pyrrolo[2,3-b]pyridine-3-carbonyl)-2,4-difluoro-phenyl]-amide]
≤ 10 µM: A-Raf | B-Raf V600E | Kdr

CCN(CC)S(=O)(=O)Nc1ccc(F)c(C(=O)c2c[nH]c3ncc(C)cc23)c1F [P-2386, N,N-diethylamino-sulfonic acid [2,4-difluoro-3-(5-methyl-1H-pyrrolo[2,3-b]pyridine-3-carbonyl)-phenyl]-amide]
≤ 10 µM: A-Raf | B-Raf V600E | Kdr

CCN(CC)S(=O)(=O)Nc1ccc(F)c(C(=O)c2c[nH]c3nccc(Cl)c23)c1F [P-2387, N,N-diethylamino-sulfonic acid [3-(4-chloro-1H-pyrrolo[2,3-b]pyridine-3-carbonyl)-2,4-difluoro-phenyl]-amide]
≤ 10 µM: A-Raf | B-Raf V600E | Kdr

CCN(CC)S(=O)(=O)Nc1ccc(F)c(C(=O)c2c[nH]c3nccc(C#N)c23)c1F [P-2388, N,N-diethylamino-sulfonic acid [3-(4-cyano-1H-pyrrolo[2,3-b]pyridine-3-carbonyl)-2,4-difluoro-phenyl]-amide]
≤ 10 µM: A-Raf | B-Raf V600E

N#Cc1ccnc2[nH]cc(C(=O)c3c(F)ccc(NS(=O)(=O)N4CCOCC4)c3F)c12 [P-2395, Morpholine-4-sulfonic acid [3-(4-cyano-1H-pyrrolo[2,3-b]pyridine-3-carbonyl)-2,4-difluoro-phenyl]-amide]
≤ 10 µM: B-Raf | A-Raf | B-Raf V600E | C-Raf

O=C(O)CCc1cccc(-c2cnc3[nH]cc(C(=O)c4cccc(NS(=O)(=O)C5CCCCC5)c4)c3c2)c1 [P-2465, 3-{3-[3-(3-Cyclohexanesulfonylamino-benzoyl)-1H-pyrrolo[2,3-b]pyridin-5-yl]-phenyl}-propionic acid]
not listed: A-Raf | C-Raf
≤ 10 µM: all other assays above
